# Results as given in patent publication US10568819B2, “Skin enhancing compositions and methods” (Sytheon Limited, priority 2016, dated 2020).
# Read-outs that look alike come from different tables or passages of the source.
# Assays:
# [1] = tested on: Keratinocytes; assay: UVA- and UVB-induced formation of immediate CPDs (iCPDs) in keratinocytes; assay type: cell-based
# Procedure: (§1) Given the significance of CPDs in skin aging and damage, a study was undertaken to determine whether compounds of the present invention have the ability to directly protect the genome of skin cells from the mutagenic effect of UV light as evidenced by CPDs inhibition. The study was conducted in accordance with the method described by Mitchell et. al. [Mitchell, D L, The relative cytotoxicity of (6-4) photoproducts and cyclobutane dimers in mammalian cells. Photochem Photobiol, 48(1):51-57, 1988)] pursuant to which UVA- and UVB-induced formation of immediate CPDs (iCPDs) were determined.
# [2] = tested on: Fibroblasts; assay: UVA-induced delayed formation of CPDs (dCPDs) in fibroblasts; assay type: cell-based; conditions: 25 μg/ml
# Procedure: (§2) A second study was carried out, similar to the first, except that this time the analysis was in assessing the efficacy, if any, of the presently taught aryl alkanones in reducing UVA-induced delayed formation of CPDs (dCPDs).
# [3] = tested on: NOX; conditions: UVA; Keratinocytes; 50 μg/ml
# [4] = tested on: NOX; conditions: UVA; Fibroblasts; 50 μg/ml
# [5] = tested on: Fibroblasts; assay: UVA- and UVB-induced formation of immediate CPDs (iCPDs) in fibroblasts; assay type: cell-based; conditions: 25 μg/ml
# Procedure: as §1
# [6] = tested on: Keratinocyte; assay: UVA-induced delayed formation of CPDs (dCPDs) in keratinocytes; assay type: cell-based; conditions: 25 μg/ml
# Procedure: as §2
# [7] = molecular target: iNOS (Homo sapiens, UniProt P35228); assay: Reduction of iNOS activity; assay type: biochemical; conditions: read-out: Reduction of iNOS activity, Amount used in μM (IC50) values)
# Chain of iNOS (P35228 whole entry, species assumed): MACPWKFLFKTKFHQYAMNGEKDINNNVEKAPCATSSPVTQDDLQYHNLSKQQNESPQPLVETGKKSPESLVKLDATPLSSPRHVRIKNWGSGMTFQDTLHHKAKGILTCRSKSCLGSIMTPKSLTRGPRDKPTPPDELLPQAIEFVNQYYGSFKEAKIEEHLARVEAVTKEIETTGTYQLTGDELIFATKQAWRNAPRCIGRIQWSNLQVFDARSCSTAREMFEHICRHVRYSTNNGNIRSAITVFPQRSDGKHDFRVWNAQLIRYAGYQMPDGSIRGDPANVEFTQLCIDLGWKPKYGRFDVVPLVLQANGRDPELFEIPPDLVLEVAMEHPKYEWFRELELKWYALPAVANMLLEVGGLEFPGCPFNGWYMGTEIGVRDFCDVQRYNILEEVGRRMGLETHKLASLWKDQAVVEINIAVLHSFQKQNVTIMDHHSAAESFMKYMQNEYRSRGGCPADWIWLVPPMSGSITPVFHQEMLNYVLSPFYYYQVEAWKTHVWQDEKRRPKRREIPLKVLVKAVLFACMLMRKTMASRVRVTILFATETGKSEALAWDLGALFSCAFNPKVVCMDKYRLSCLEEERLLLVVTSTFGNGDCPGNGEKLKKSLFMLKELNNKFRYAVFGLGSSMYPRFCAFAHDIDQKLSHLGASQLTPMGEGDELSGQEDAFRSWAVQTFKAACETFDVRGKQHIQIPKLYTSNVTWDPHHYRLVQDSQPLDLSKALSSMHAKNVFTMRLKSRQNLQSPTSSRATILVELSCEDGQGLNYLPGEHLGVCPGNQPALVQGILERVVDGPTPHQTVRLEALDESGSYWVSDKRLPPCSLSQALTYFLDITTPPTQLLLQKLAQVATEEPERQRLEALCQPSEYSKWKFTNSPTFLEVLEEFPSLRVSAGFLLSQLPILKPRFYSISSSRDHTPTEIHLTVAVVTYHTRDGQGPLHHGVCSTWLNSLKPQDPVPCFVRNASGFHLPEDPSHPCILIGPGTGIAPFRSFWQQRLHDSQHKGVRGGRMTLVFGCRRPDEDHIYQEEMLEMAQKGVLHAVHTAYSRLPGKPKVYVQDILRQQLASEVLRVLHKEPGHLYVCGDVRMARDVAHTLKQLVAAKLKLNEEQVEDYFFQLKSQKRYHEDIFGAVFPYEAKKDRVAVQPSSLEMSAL
# Excerpt: Accordingly, an investigation was undertaken to assess the efficacy of compounds according to the present teaching as compared to compounds that are closely structurally related thereto in inhibiting NO product.
# [8] = tested on: ϕX-174 RF bacteriophage supercoiled DNA; assay: UVA/AGE-albumin-induced DNA strand breaks (QPES); assay type: biochemical
# Procedure: A study was undertaken to determine whether the aryl alkanones of the present invention have the ability to reduce photooxidative stress by physical Quencher of Photo-excited States (QPES) mechanism under UV light employing the method of Wondarak et al, (J Invest Dermatol, 119:489, 2002). Briefly, 100 ng (experiment 1) or 200 ng (experiment 2) of ϕX-174 RF bacteriophage supercoiled DNA was irradiated in the presence of […] of filtered glycated bovine serum albumin (20 mg/ml BSA reacted for 3 weeks with 180 mg/ml glucose at 37° C.) in a final volume of 100 μl. The irradiation was performed in a 96 well plate without lid, with UVA lamp (Ultra-lum UVA-28T at 6.4 mW/cm^2) for 2 h, delivering a total energy of […]. Following irradiation 10 μl of the reaction mixture was mixed with 2 μl of loading buffer, resolved in 1% agarose gel (at 90V for 20 min) and stained with ethidium bromide ([…]). The intact (supercoiled) lower (faster-migrating) band and the UVA-damaged (uncoiled) higher (slower-migrating) band were visualized using Hoefer transilluminator. Photographs of the gels were then processed using NIH ImageJ and ratio of unwound (damaged) to supercoiled (intact) bands was calculated and used to assess the protective activity of test materials.
# [9] = Antioxidant power / quenching: singlet oxygen
# Procedure: Separately, a study of the singlet oxygen quenching ability of Compound 1 and Compound 7 were evaluated.
# [10] = Lipid peroxidation, squalene substrate; assay type: biochemical; conditions: Squalene used as a substrate
# [11] = Antioxidant power: peroxynitrite
# [12] = Antioxidant power: peroxyl radicals
# [13] = Antioxidant power: hydroxyl radicals
# [14] = Antioxidant power: super oxide anion
compound,measurement,setting,value
CCOC(=O)C(Cc1cc(OC)c(OC)c(OC)c1)C(C)=O (centres unmarked) [Compound 8],UVA/% Reduction in iCPDs vs. Control,[1]; 50 μg/ml,42%^+
same,"UVA/% Reduction in dCPDs vs. control, 0 hr. (Reduction in iCPDs)","[2]; 0 hr., product incubated for 24 hrs. plus UVA irradiation",^+0 hr.: No effect
same,"UVA/% Reduction in dCPDs vs. control, 1 hr.","[2]; 1 hr., product incubated for 24 hrs. plus UVA irradiation",1 hr.: ↓35%
same,"UVA/% Reduction in dCPDs vs. control, 2 hr.","[2]; 2 hr., product incubated for 24 hrs. plus UVA irradiation",2 hr.: ↓52%
same,"UVA/% Reduction in dCPDs vs. control, 4 hr.","[2]; 4 hr., product incubated for 24 hrs. plus UVA irradiation",4 hr.: ↓32%
same,reduction of NOX activity,[3],−17%
same,reduction of NOX activity,[4],−14%
CCOC(=O)C(Cc1ccc(O)c(OC)c1)C(C)=O (centres unmarked) [Compound 2],UVA/% Reduction in iCPDs vs. Control,[1]; 25 μg/ml,26%
same,UVB/% Reduction iCPDs vs. Control,[1]; 25 μg/ml,25%
same,UVB/% Reduction iCPDs vs. Control,[5],44%
same,"UVA/% Reduction in dCPDs vs. control, 0 hr. (Reduction in iCPDs)",[6]; 0 hr.,^+0 hr.: ↓26%
same,"UVA/% Reduction in dCPDs vs. control, 1 hr.",[6]; 1 hr.,1 hr.: ↓13%
same,"UVA/% Reduction in dCPDs vs. control, 2 hr.",[6]; 2 hr.,2 hr.: ~0%
"COc1cc(CCC(C)=O)ccc1O [Zingerone, reference compound]",IC50,[7],364 µM
same,UVA/% Reduction in iCPDs vs. Control,[1]; 25 μg/ml,No effect
same,UVB/% Reduction iCPDs vs. Control,[1]; 25 μg/ml,No effect
same,UVA/% Reduction in iCPDs vs. Control,[5]; UVA,No effect
same,UVB/% Reduction iCPDs vs. Control,[5],No effect
same,UVA/% Reduction in dCPDs vs. control,[6]; time not given,No effect
same,UVA/% Reduction in dCPDs vs. control,[2]; time not given,No effect
COc1cc(CC(C(C)=O)C(C)=O)cc(OC)c1OC [Compound 7],% DNA strand breaks,[8]; 0.03 μg/ml,33%
same,% DNA strand protection,[8]; 0.03 μg/ml,67%
same,% DNA strand breaks,[8]; 0.1 μg/ml,15%
same,% DNA strand protection,[8]; 0.1 μg/ml,85%
same,"Antioxidant Power, Singlet oxygen",[9],"6,359+ μmole Trolox Equivalent/gram"
same,Singlet oxygen quenching,[9]; ±10% error,"6,359 μMole Trolox Equivalent/g"
Tocopherol,Lipid peroxidation IC50 value,[10],30 µg/mL
same,"Antioxidant Power, Peroxynitrite",[11],1 μmole Trolox Equivalent/gram
same,"Antioxidant Power, Peroxyl radicals",[12],813 μmole Trolox Equivalent/gram
same,"Antioxidant Power, Hydroxyl radicals",[13],Not detected
same,"Antioxidant Power, Super oxide anion",[14],Not detected
same,"Antioxidant Power, Singlet oxygen",[9],"1,110 μmole Trolox Equivalent/gram"
